Laboratory results reported in US6060604A, “Pharmaceutical compounds comprising polyamines substituted with electron-affinic groups” (priority 1996, dated 2000).
Values joined by “and” are separate entries in the source; they are usually repeats but may differ in a detail not shown here. Identical values can stand only once. Like-named read-outs stand apart in the source and are kept apart here.

Legend:
[1] = system: H. pylori; experiment: agar dilution method, inhibition of H. pylori growth; format: cell-based, H. pylori strain ATCC43504
[2] = system: H. pylori; experiment: disk diffusion method, H. pylori growth inhibition; format: cell-based
[3] = system: H. pylori; experiment: modified bottle broth method, H. pylori growth inhibition; format: cell-based
[4] = system: hypoxic CHO cells; experiment: radiosensitizing potency on hypoxic CHO cells as a function of linker length (Table 3); format: cell-based, Chinese hamster; conditions: vs metronidazole, 8 Gy, by linker (spacer chain) length
Description: The experiment shown in Table 3 is a later experiment which was conducted to determine the effect of the spacer chain (i.e., A) length. CHO cells were plated and allowed to attach to petri dishes for 3 h, then the media was replaced with 5 ml of Hank's Balanced Salt Solution with or without drugs. To induce cell hypoxia, the dishes were placed in sealed aluminum chambers which were degassed by pumping, and then back filled with 95% N2 /5% CO2. After 4 cycles, when the cells were severely hypoxic, the chambers were exposed to an X-ray beam generated by a General Electric Maxitron 300 therapy machine operated at 250 kVp and 20 mA (HVL 20 mm Al filter; dose rate at 2 Gy/min). The cells were cultured for 7 days in a 37° C. incubator and the resulting cell colonies were stained and counted.

[5] = system: MTG-B mammary adenocarcinoma tumors; experiment: in vivo radiosensitization of MTG-B mammary adenocarcinoma tumors in mice; set-up: species or system female C3H mice
Description: To determine whether the pronounced effects of DATM in tissue culture can be duplicated in solid tumors, in vivo studies were performed on mice bearing MTG-B mammary adenocarcinoma tumors. The tumors were grown subcutaneously in the right flank of 7-week old female C3H mice. When the tumor diameter reached 8 mm, 8-carbon DATM was administered to groups of mice either intraperitoneally or orally at 2 g/kg, and 2 or 4 h later the tumors were subjected to an X-ray dose of 22 Gy. Control mice bearing identical tumors were either left untreated or treated with radiation alone or drug alone. For irradiation, the mice were placed into lead holders with the tumor-bearing leg exposed. After treatment, the tumor diameters were measured daily by caliper and the time required for tumors to grow to twice their initial size was calculated as tumor doubling time (TDT), with the treatment day defined as Day 0 for all calculations and plots, The survival time for mice was also recorded in all treatment groups.
To evaluate radiosensitization at different radiation doses, additional experiments were carried out where mice receiving DATM (2 g/kg body weight, given orally) were exposed to different radiation doses (0, 12, 22, 32 Gy).
FIG. 10 compares the effectiveness of oral DATM (2 g/kg body weight) to that of a much smaller DATM dose (25 mg/kg body weight) injected directly into the tumor.

[6] = system: mice; experiment: later in vivo toxicity, oral, mice
[7] = system: Chinese hamster ovary (CHO) cells; experiment: in vitro radiosensitization of hypoxic CHO cells, colony formation (Table 1); format: cell-based
Description: Cells were plated and allowed to attach on glass petri dishes for 3 h, then the media was replaced with 5 ml of Hank's balanced salt solution (HBSS) with or without drugs. To induce cell hypoxia, the dishes were placed at room temperature into sealed aluminum chambers (8 dishes/chamber). […] This procedure was repeated 4 times with 5 min holding periods under positive gas pressure between evacuations. After 1 h, when the cells were severely hypoxic, the chambers were placed in 37° C. water bath for 1 hr. For oxic treatment groups, cells were placed in 37° C. incubators for 2 h with 5 ml of HBSS (±drugs). The chambers were placed on a rotating table and exposed to an X-ray beam generated by a General Electric Maxitron 300 therapy machine operated at 250 kVp and 20 mA (HVL 20 mm Al filter; dose rate at 2 Gy/min). After irradiation, cells were rinsed with HBSS, and covered with fresh media. Cells were cultured for 7 days in a 37° C. incubator. The resulting cell colonies were stained and counted.

[8] = system: CHO cells; experiment: radiosensitization potency on hypoxic CHO cells at 20% survival, single X ray dose 8 Gy (Table 2); format: cell-based, Chinese hamster; conditions: for IC80: Cricetulus griseus, CHO, read-out: drug molarity required to reduce cell survival to 20% of the untreated control value
Description: Cells were plated and allowed to attach on glass petri dishes for 3 h, then the media was replaced with 5 ml of Hank's balanced salt solution (HBSS) with or without drugs. To induce cell hypoxia, the dishes were placed at room temperature into sealed aluminum chambers (8 dishes/chamber). The chambers were degassed by pumping, and then back-filled with 95% N2 and 5% CO2. This procedure was repeated 4 times with 5 min holding periods under positive gas pressure between evacuations. After 1 h, when the cells were severely hypoxic, the chambers were placed in 37° C. water bath for 1 hr. For oxic treatment groups, cells were placed in 37° C. incubators for 2 h with 5 ml of HBSS (±drugs). The chambers were placed on a rotating table and exposed to an X-ray beam generated by a General Electric Maxitron 300 therapy machine operated at 250 kVp and 20 mA (HVL 20 mm Al filter; dose rate at 2 Gy/min). After irradiation, cells were rinsed with HBSS, and covered with fresh media. Cells were cultured for 7 days in a 37° C. incubator. The resulting cell colonies were stained and counted.
In the experiment shown in Table 2 hypoxic CHO cells were irradiated with a single X ray dose of 8 Gy, with or without drugs.

[9] = system: CHO cells; experiment: thermo-radiosensitization of hypoxic CHO cells, colony forming assay (Table 4); format: cell-based, Chinese hamster; conditions: 41° C.
Description: To examine the thermo-radiosensitizing effects of compounds (8) and (10), hypoxic CHO cells were irradiated (with or without drugs) with radiation doses ranging from 0-30 Gy. After irradiation, the chambers were placed either in a 37° C. or in a 41° C. water bath for 30 min. Then cell survival was evaluated by the colony forming assay.

[10] = system: hypoxic CHO cells; experiment: in vitro toxicity on hypoxic CHO cells, colony formation; format: cell-based, Chinese hamster; conditions: 0.2 mM, 12 hours at 37° C.
Description: (§1) Subsequently, hypoxic CHO cells were incubated with 0.2 mM DATM or 10 mM metro for 12 hours at 37° C.

[11] = system: hypoxic CHO cells; experiment: radiosensitizing hypoxic CHO cells, drugs given 2 hours at 4° C.; format: cell-based, Chinese hamster
[12] = system: mice; experiment: preliminary in vivo toxicity, intraperitoneal, mice
Description: In a preliminary in vivo study, two groups of mice were injected intraperitoneally with either 1 g/kg or 4 g/kg of DATM (formula 8).

[13] = in vitro toxicity on hypoxic CHO cells, colony formation; format: cell-based, Chinese hamster; conditions: hamster, cho cells, 10 mM, 12 hours at 37° C., read-out: reduction in colony formation
Description: as §1

[14] = system: mice; conditions: reported value for metro; cited from earlier work
[15] = system: viral infections; cutaneous inflammation; eye disorders; conditions: cited from earlier work
[16] = in vivo; conditions: mouse, po
[17] = cited from earlier work
[18] = DATM (2 g/kg, i.p. or oral) + radiation 22 Gy

## Cc1ncc([N+](=O)[O-])n1CCN(CCCCCCCCN(CCn1c([N+](=O)[O-])cnc1C)CCn1c([N+](=O)[O-])cnc1C)CCn1c([N+](=O)[O-])cnc1C [8-carbon DATM, N, N, N', N'-tetra[2'(2-methyl-5-nitro-1-imidazolyl)ethyl]-1,8-octanediamine]
[1]
  ratio of the MIC of metronidazole over that of DATM: 35.37
[2]
  times more potent than metronidazole in killing H. pylori: 22.1 times
[3]
  ratio of the two MIC (metronidazole/DATM): 132.63
[4]
  Sensitization Ratio at 20% Cell Survival Level: 510
[5]; 25 mg/kg intratumor vs 2 g/kg i.p., 22 Gy
  sensitization effect of intratumor injection vs intraperitoneal: same sensitization effect as 2 g/kg given intraperitoneally
[5]; 25 mg/kg intratumor vs 2 g/kg oral
  effectiveness of intratumor injection vs oral: much more effective than oral drug administration
[5]; 2 g/kg orally, radiation doses 0, 12, 22, 32 Gy
  life span of tumor-bearing mice: pronounced increase in the life span of tumor-bearing mice at all radiation doses studied
[5]; 8-carbon DATM alone
  tumor doubling time (TDT): 4 days
[5]; 8-carbon DATM alone, 2 g/kg, no radiation
  survival time of mice: 13 to 15 days
[5]; [18]
  increase of survival time: 157-179%
  survival time: 36 days and 39 days
[5]; DATM + radiation
  effectiveness in delaying tumor growth relative to radiation alone: ~3 times
  tumor doubling time (TDT): 18 days
[5]; equal drug dose, 22 Gy
  effectiveness of oral vs intraperitoneal: slightly less effective than an equal drug dose administered intraperitoneally
[6]; oral
  times less toxic to mice than metronidazole: at least 5 times
[6]; oral doses as high as 20 g/kg
  toxicity: no toxicity was observed

## Cc1ncc([N+](=O)[O-])n1CCN(CCCCN(CCn1c([N+](=O)[O-])cnc1C)CCn1c([N+](=O)[O-])cnc1C)CCn1c([N+](=O)[O-])cnc1C [Compound 8, N, N, N', N'-tetra [2'-(2-methyl-5-nitro-1-imidazolyl)ethyl]-1,4-butanediamine]
[7]; drug dose 0.1 mM
  Do: 2.5 Gy
  Ratio of RT Dose For 0.04 SF: 1.5
[7]; drug dose 0.1 mM, hypoxic, 18 Gy
  SFR (N2)(18 Gy), surviving fraction ratio: 9.0
[8]
  IC80: 0.2 mM
[8]; hypoxic, 8 Gy, 20% survival
  times more potent than metronidazole: 50 times
[8]; vs metronidazole, 8 Gy
  Sensitization Ratio at 20% Survival Level: 50
[9]; hypoxic CHO cells
  combined drug/mild hyperthermia effect on radiosensitivity: hypoxic cells become even more radiosensitive (smaller D0) than fully oxic cells
[9]; drug dose 50 μM, 30 min
  Do: 0.8 Gy
[10]
  toxic effects on CHO cells: No toxic effects were noted
[11]
  radiosensitizing effectiveness, 0.2 mM DATM vs 10 mM metro: equally effective
[12]; 1 g/kg intraperitoneally, mice
  toxicity: No toxicity was observed
[12]; 4 g/kg intraperitoneally, mice
  lethality: all mice of the 4 g/kg group died
[12]; same dosage
  toxicity compared to metro: roughly comparable to that of metro for the same dosage

## Cc1ncc([N+](=O)[O-])n1CCO [metronidazole, 1-(2-hydroxyethyl)-2-methyl-5-nitroimidazole]
[7]; drug dose 0.5 mM
  Do: 3.3 Gy
[8]; hypoxic, single X ray dose of 8 Gy
  IC80: 10 mM
[13]
  cytotoxicity at 12 h, 10000 µM: 95%
[11]
  radiosensitizing effectiveness, 0.2 mM DATM vs 10 mM metro: equally effective
[14]
  LD50: about 3.3 g/kg
[15]
  treatment of cutaneous inflammation due to dermatosis such as eczema, ulcers, acne, and rosacea: effective
  treatment of eye disorders such as blepharoconjunctivitis and meibomian gland dysfunctions: effective
  treatment of viral infections such as measles, herpes, and viral diverticulitis: effective
[16]
  LD50: ~4000 mg/kg
[17]; as radiosensitizers
  toxicity at therapeutic levels: highly toxic at therapeutic levels
[17]; dermatological use
  photosensitization: photosensitizer
